Experimental findings from article PMC8229862, “Elaiophylin Is a Potent Hsp90/ Cdc37 Protein Interface Inhibitor with K-Ras Nanocluster Selectivity” (Biomolecules, 2021) are described below.

Experiment [1] has as its target T1, Hsp90 (N-terminal domain) (Homo sapiens, UniProt P07900).
T1 construct: gene HSP90AA1; N-terminal fragment of Hsp90 (NRL-N-Hsp90); with Cdc37
Put plainly: lysate-based split Renilla luciferase Hsp90/Cdc37 interaction assay; supported by co-immunoprecipitation. The class given is biochemical.

Experiment [2] deals with T2, Hsp90α (Homo sapiens, UniProt P07900).
T2 construct: gene HSP90AA1; endogenous Hsp90 in MDA-MB-231 or MIA PaCa-2 cells; with Cdc37
Kind of experiment: co-immunoprecipitation of Cdc37 with Hsp90α from cells treated with […] for […] h. The class given is cell-based.

SMILES strings stand for the structures.

In general, IC50 refers to the concentration needed to halve the response being measured. A lower IC50 goes with inhibition by little substance.

As for `CC[C@@H]1[C@@H](C)O[C@@](O)([C@@H](C)[C@H](O)[C@H](C)[C@H]2OC(=O)/C=C/C=C/[C@H](C)[C@@H]([C@@H](C)[C@@H](O)[C@H](C)[C@@]3(O)C[C@@H](O[C@H]4C[C@H](O)[C@H](O)[C@H](C)O4)[C@H](CC)[C@@H](C)O3)OC(=O)/C=C/C=C/[C@@H]2C)C[C@H]1O[C@H]1C[C@H](O)[C@H](O)[C@H](C)O1` [elaiophylin], in experiment [1], half-maximal inhibition (IC50) was put at 11 ± 4 µM.

As to `C/C1=C\[C@H](C)C[C@H](C)[C@H](Cc2cnco2)OC(=O)/C(C)=C/[C@H](C)C[C@H](C)[C@H](Cc2cnco2)OC1=O` [conglobatin A], in experiment [2], the “co-immunoprecipitation of Cdc37 with Hsp90α from cells treated with 10 μM for 24” value was “Both elaiophylin and conglobatin A treatment reduced the amount of co-precipitated Cdc37”.
